# In patent US12384770B2, “Heterocyclic compound” (Takeda Pharmaceutical Company Limited, priority 2019, dated 2025):
# Molecular target: T1, HDAC6 enzyme (Homo sapiens, UniProt Q9UBN7)
# T1 construct: HDAC6 enzyme prepared by transducing full length HDAC6 gene into Sf-9 insect cells; GST; purchased SignalChem; host or cells: Sf-9 insect cells
# T1 sequence (Q9UBN7 1-1215): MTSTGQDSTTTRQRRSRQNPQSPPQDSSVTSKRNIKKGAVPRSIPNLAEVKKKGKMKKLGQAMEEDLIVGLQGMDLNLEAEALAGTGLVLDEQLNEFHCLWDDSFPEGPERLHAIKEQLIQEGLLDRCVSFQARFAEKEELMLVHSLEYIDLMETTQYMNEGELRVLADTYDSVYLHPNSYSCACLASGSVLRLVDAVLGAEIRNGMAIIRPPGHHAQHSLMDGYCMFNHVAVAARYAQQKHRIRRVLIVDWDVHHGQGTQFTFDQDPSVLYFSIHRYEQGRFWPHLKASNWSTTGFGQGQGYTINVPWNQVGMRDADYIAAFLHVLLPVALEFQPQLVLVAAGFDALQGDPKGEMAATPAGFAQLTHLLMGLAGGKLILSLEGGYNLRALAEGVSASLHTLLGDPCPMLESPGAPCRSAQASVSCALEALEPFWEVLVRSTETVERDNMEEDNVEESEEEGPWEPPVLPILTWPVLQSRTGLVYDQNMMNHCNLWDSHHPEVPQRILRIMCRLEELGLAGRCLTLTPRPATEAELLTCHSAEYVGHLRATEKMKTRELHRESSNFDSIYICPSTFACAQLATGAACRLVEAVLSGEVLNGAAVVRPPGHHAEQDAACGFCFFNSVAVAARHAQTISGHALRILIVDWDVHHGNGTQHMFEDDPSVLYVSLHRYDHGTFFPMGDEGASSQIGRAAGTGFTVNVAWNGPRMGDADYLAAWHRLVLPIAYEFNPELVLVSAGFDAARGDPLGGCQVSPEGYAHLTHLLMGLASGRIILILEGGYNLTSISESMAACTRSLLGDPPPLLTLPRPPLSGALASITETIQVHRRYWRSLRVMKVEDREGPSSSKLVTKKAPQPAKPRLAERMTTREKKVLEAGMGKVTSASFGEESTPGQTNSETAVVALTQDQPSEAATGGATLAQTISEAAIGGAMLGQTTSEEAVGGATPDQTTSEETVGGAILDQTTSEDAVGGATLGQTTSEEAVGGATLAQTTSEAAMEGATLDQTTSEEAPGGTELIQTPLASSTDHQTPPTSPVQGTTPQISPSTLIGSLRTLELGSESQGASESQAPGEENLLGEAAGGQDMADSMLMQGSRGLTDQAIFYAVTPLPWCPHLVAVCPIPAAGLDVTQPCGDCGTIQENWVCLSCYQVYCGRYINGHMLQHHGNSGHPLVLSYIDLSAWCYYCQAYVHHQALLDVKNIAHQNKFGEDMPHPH
# Assay: HDAC6 enzyme inhibitory assay (HDAC-Glo I/II Assay kit)
# Type: biochemical
# Settings: wells without enzyme = 100% inhibition; for inhibition at 10 µM: read-out: HDAC6 inhibitory rate (%) (10 μM)
# In short: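 Full-length GST-purified HDAC6 from Sf-9 cells preincubated with compound 60 min at room temperature in Tris-HCl pH 7.5 buffer with MgCl2, KCl, NaCl, glutathione, Tween-20. Substrate-developer reaction 20 min, luminescence read; no-enzyme wells set as 100% inhibition.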
inhibition at 10 µM,other results,SMILES
–,HDAC6 inhibitory rate (%) (10 μM) (10 µM): 100%,"O=C1c2cc(-c3nnc(C(F)F)o3)ccc2CN1[C@H](c1ccccn1)[C@@H](O)c1ccc(Cl)cn1 (single isomer, unassigned) [Example 113, 2-[(1R*,2R)-2-(5-chloropyridin-2-yl)-2-hydroxy-1-(pyridin-2-yl)ethyl]-6-[5-(difluoromethyl)-1,3,4-oxadiazol-2-yl]-2,3-dihydro-1H-isoindol-1-one]"
99%,–,"O=C1c2cc(-c3nnc(C(F)F)o3)ccc2CN1[C@H](c1ccccn1)[C@@H](O)c1cccc(Cl)n1 (single isomer, unassigned) [Example 114, 2-[(1R*,2R*)-2-(6-chloropyridin-2-yl)-2-hydroxy-1-(pyridin-2-yl)ethyl]-6-[5-(difluoromethyl)-1,3,4-oxadiazol-2-yl]-2,3-dihydro-1H-isoindol-1-one]"
–,HDAC6 inhibitory rate (%) (10 μM) (10 µM): 100%,"O=C1c2cc(-c3nnc(C(F)F)o3)ccc2CN1[C@H](c1ccccn1)[C@@H](O)c1cccc(Cl)n1 (single isomer, unassigned) [Example 115, 2-[(1R*,2R*)-2-(6-chloropyridin-2-yl)-2-hydroxy-1-(pyridin-2-yl)ethyl]-6-[5-(difluoromethyl)-1,3,4-oxadiazol-2-yl]-2,3-dihydro-1H-isoindol-1-one]"
101%,–,"O=C1c2cc(-c3nnc(C(F)F)o3)ccc2CN1[C@H](c1cccc(F)n1)[C@@H](O)c1cccc(F)n1 (single isomer, unassigned) [Example 117, 2-[(1R*,2R*)-1,2-bis(6-fluoropyridin-2-yl)-2-hydroxyethyl]-6-[5-(difluoromethyl)-1,3,4-oxadiazol-2-yl]-2,3-dihydro-1H-isoindol-1-one]"
–,HDAC6 inhibitory rate (%) (10 μM) (10 µM): 102%,"O=C1c2cc(-c3nnc(C(F)F)o3)ccc2CN1[C@H](c1cccc(F)n1)[C@@H](O)c1cccc(F)n1 (single isomer, unassigned) [Example 118, 2-[(1R*,2R*)-1,2-bis(6-fluoropyridin-2-yl)-2-hydroxyethyl]-6-[5-(difluoromethyl)-1,3,4-oxadiazol-2-yl]-2,3-dihydro-1H-isoindol-1-one]"
101%,–,"O=C1c2cc(-c3nnc(C(F)F)o3)ccc2CN1[C@H](c1ccccn1)[C@@H](O)c1cccc(C(F)(F)F)n1 (single isomer, unassigned) [Example 119, 6-[5-(difluoromethyl)-1,3,4-oxadiazol-2-yl]-2-{(1R*,2R*)-2-hydroxy-1-(pyridin-2-yl)-2-[6-(trifluoromethyl)pyridin-2-yl]ethyl}-2,3-dihydro-1H-isoindol-1-one]"
–,HDAC6 inhibitory rate (%) (10 μM): 101%,"O=C1c2cc(-c3nnc(C(F)F)o3)ccc2CN1[C@H](c1ccccn1)[C@@H](O)c1cccc(C(F)(F)F)n1 (single isomer, unassigned) [Example 120, 6-[5-(difluoromethyl)-1,3,4-oxadiazol-2-yl]-2-{(1R*,2R*)-2-hydroxy-1-(pyridin-2-yl)-2-[6-(trifluoromethyl)pyridin-2-yl]ethyl}-2,3-dihydro-1H-isoindol-1-one]"
100%,–,"O=C1c2cc(-c3nnc(C(F)F)o3)ccc2CN1[C@H](c1cccnn1)[C@@H](O)c1cccc(Cl)c1 (single isomer, unassigned) [Example 122, 2-[(1R*,2S*)-2-(3-chlorophenyl)-2-hydroxy-1-(pyridazin-3-yl)ethyl]-6-[5-(difluoromethyl)-1,3,4-oxadiazol-2-yl]-2,3-dihydro-1H-isoindol-1-one]"
101%,–,"O=C1c2cc(-c3nnc(C(F)F)o3)ccc2CN1[C@H](c1ccccn1)[C@@H](O)c1cc(Cl)ccn1 (single isomer, unassigned) [Example 123, 2-[(1R*,2R*)-2-(4-chloropyridin-2-yl)-2-hydroxy-1-(pyridin-2-yl)ethyl]-6-[5-(difluoromethyl)-1,3,4-oxadiazol-2-yl]-2,3-dihydro-1H-isoindol-1-one]"
–,HDAC6 inhibitory rate (%) (10 μM) (10 µM): 100%,"O=C1c2cc(-c3nnc(C(F)F)o3)ccc2CN1[C@H](c1ccccn1)[C@@H](O)c1cc(Cl)ccn1 (single isomer, unassigned) [Example 124, 2-[(1R*,2R*)-2-(4-chloropyridin-2-yl)-2-hydroxy-1-(pyridin-2-yl)ethyl]-6-[5-(difluoromethyl)-1,3,4-oxadiazol-2-yl]-2,3-dihydro-1H-isoindol-1-one]"
101%,–,"O=C1c2cc(-c3nnc(C(F)F)o3)ccc2CN1[C@H](c1cccc(F)n1)[C@@H](O)c1ccc(F)cn1 (single isomer, unassigned) [Example 126, 6-[5-(difluoromethyl)-1,3,4-oxadiazol-2-yl]-2-[(1R*,2R*)-2-(5-fluoropyridin-2-yl)-1-(6-fluoropyridin-2-yl)-2-hydroxyethyl]-2,3-dihydro-1H-isoindol-1-one]"
99%,–,"O=C1c2cc(-c3nnc(C(F)F)o3)ccc2CN1[C@H](c1cnccn1)[C@@H](O)c1ccccc1 (single isomer, unassigned) [Example 127, 6-[5-(difluoromethyl)-1,3,4-oxadiazol-2-yl]-2-[(1R*,2S*)-2-hydroxy-2-phenyl-1-(pyrazin-2-yl)ethyl]-2,3-dihydro-1H-isoindol-1-one]"
–,HDAC6 inhibitory rate (%) (10 μM): 99%,"O=C1c2cc(-c3nnc(C(F)F)o3)ccc2CN1[C@H](c1cnccn1)[C@@H](O)c1ccccc1 (single isomer, unassigned) [Example 128, 6-[5-(difluoromethyl)-1,3,4-oxadiazol-2-yl]-2-[(1R*,2S*)-2-hydroxy-2-phenyl-1-(pyrazin-2-yl)ethyl]-2,3-dihydro-1H-isoindol-1-one]"
100%,–,"O=C1c2cc(-c3nnc(C(F)F)o3)ccc2CN1[C@H](C1CC1)[C@@H](O)c1cccc(Cl)n1 (single isomer, unassigned) [Example 129, 2-[(1R*,2R*)-2-(6-chloropyridin-2-yl)-1-cyclopropyl-2-hydroxyethyl]-6-[5-(difluoromethyl)-1,3,4-oxadiazol-2-yl]-2,3-dihydro-1H-isoindol-1-one]"
–,HDAC6 inhibitory rate (%) (10 μM) (10 µM): 98%,"O=C1c2cc(-c3nnc(C(F)F)o3)ccc2CN1[C@H](C1CC1)[C@@H](O)c1cccc(Cl)n1 (single isomer, unassigned) [Example 130, 2-[(1R*,2R*)-2-(6-chloropyridin-2-yl)-1-cyclopropyl-2-hydroxyethyl]-6-[5-(difluoromethyl)-1,3,4-oxadiazol-2-yl]-2,3-dihydro-1H-isoindol-1-one]"
99%,–,"O=C1c2cc(-c3nnc(C(F)F)o3)ccc2CN1[C@H](c1ccc(F)cc1)[C@@H](O)c1ccc(F)nc1 (single isomer, unassigned) [Example 131, 6-[5-(difluoromethyl)-1,3,4-oxadiazol-2-yl]-2-[(1R*,2S*)-1-(4-fluorophenyl)-2-(6-fluoropyridin-3-yl)-2-hydroxyethyl]-2,3-dihydro-1H-isoindol-1-one]"
–,HDAC6 inhibitory rate (%) (10 μM): 99%,"O=C1c2cc(-c3nnc(C(F)F)o3)ccc2CN1[C@H](c1ccc(F)cc1)[C@@H](O)c1ccc(F)nc1 (single isomer, unassigned) [Example 132, 6-[5-(difluoromethyl)-1,3,4-oxadiazol-2-yl]-2-[(1R*,2S*)-1-(4-fluorophenyl)-2-(6-fluoropyridin-3-yl)-2-hydroxyethyl]-2,3-dihydro-1H-isoindol-1-one]"
100%,–,"O=C1c2cc(-c3nnc(C(F)F)o3)ccc2CN1[C@@H](c1ccc(F)cn1)[C@H](O)c1ccc(F)cn1 (stereo in doubt) [Example 6, 2-[(1S,2S)-1,2-bis(5-fluoropyridin-2-yl)-2-hydroxyethyl]-6-[5-(difluoromethyl)-1,3,4-oxadiazol-2-yl]-2,3-dihydro-1H-isoindol-1-one]"
100%,–,"O=C1c2cc(-c3nnc(C(F)F)o3)ccc2CN1[C@@H](c1ccccn1)[C@H](O)c1ccccn1 [Example 2, 6-[5-(difluoromethyl)-1,3,4-oxadiazol-2-yl]-2-[(1S,2S)-2-hydroxy-1,2-di(pyridin-2-yl)ethyl]-2,3-dihydro-1H-isoindol-1-one]"
